Laboratory results published in patent US6673931B2, “Naphthalenyl piperidines as renin inhibitors” (Hoffman-La Roche Inc., priority 1999, dated 2004).
Counter-ions that a name gives are not always drawn.

These molecules were tested against T1, human renin (Homo sapiens, UniProt P00797) (assay: In vitro test with pure human renin (angiotensin I production via RIA)). Details: human tetradecapeptide renin substrate (hTD), pH 7.4, three hours at 37° C.
T1 sequence (P00797 67-406): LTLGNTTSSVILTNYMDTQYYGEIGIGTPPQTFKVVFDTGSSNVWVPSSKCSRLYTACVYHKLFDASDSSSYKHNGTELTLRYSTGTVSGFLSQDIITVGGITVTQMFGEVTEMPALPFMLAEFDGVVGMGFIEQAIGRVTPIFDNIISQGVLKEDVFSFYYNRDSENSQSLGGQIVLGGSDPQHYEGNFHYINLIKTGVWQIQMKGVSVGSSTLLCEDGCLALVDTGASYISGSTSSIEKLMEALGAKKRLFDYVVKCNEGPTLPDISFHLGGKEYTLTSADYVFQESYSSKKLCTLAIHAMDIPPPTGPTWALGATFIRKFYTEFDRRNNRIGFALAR
Type: biochemical
Procedure: The tests can be carried out in analogy to those described by D. T. Pals et al. in Hypertension Vol. 8, 1105-1112 (1986) or J. Boger et al. in J. Med. Chem. 28, 1779-1790 (1985) or J. F. Dellaria et al. in J. Med. Chem. 30,2137-2144 (1987) or T. Kokubu et al. in Biochem. Biophys. Res. Commun. 118, 929-933 (1984):
In vitro test with pure human renin:
The test is carried out in Eppendorf test tubes. The incubation mixture consists of (1) 100 μl of human renin in buffer A (0.1 M sodium phosphate solution, pH 7.4, containing 0.1% bovine serum albumin, 0.1% sodium azide and 1 mM ethylenediaminetetraacetic acid), sufficient for a renin activity of 2-3 ng of angiotensin I/ml/hr.; (2) 145 μl of buffer A: (3) 30 μl of 10 mM human tetradecapeptide renin substrate (hTD) in 10 mM hydrochloric acid: (4) 15 μl of dimethyl sulphoxide with or without inhibitor and (5) 10 μl of a 0.03 molar solution of hydroxyquinoline sulphate in water.
The samples are incubated for three hours at 37° C. and, respectively, 4° C. in triplicate. 2×100 μl samples per test tube are used in order to measure the production of angiotensin I via RIA (standard radioimmunoassay; clinical assay solid phase kit). Cross reactivities of the antibody used in the RIA are: angiotensin I 100%; angiotensin II 0.0013%; hTD (angiotensin I-Val-Ile-His-Ser-OH) 0.09%. The production of angiotensin I is determined by the difference between the test at 37° C. and that at 4° C.
The following controls are carried out:
(a) Incubation of hTD samples without renin and without inhibitor at 37° C. and 40° C. The difference between these two values gives the base value of the angiotensin I production.
(b) Incubation of hTD samples with renin, but without inhibitor at 37° C. and 4° C. The difference between these values gives the maximum value of the angiotensin I production.
In each sample the base value of the angiotensin I production is subtracted from the angiotensin I production which is determined. The difference between the maximum value and the base value gives the value of the maximum substrate hydrolysis (=100%) by renin.
The results are given as IC50 values which denote the concentration of the inhibitor at which the enzymatic activity is inhibited by 50%. The IC50 values are determined from a linear regression curve from a logit-log plot.
COC[C@@H](O)CO[C@@H]1CNC[C@H](OCc2cc(OC)c3ccccc3c2)[C@H]1c1ccc(OCCCOCc2ccccc2OC)cc1 [A, (R)-1-methoxy-3-[(3S,4R,5R)-4-[4-[3-(2-methoxy-benzyloxy)-propoxy]-phenyl]-5-(4-methoxy-naphthalen-2-ylmethoxy)-piperidin-3-yloxy]-propan-2-ol] was tested, and the IC50 was 0.06 nM. COCCOC[C@@H](O)CO[C@@H]1CNC[C@H](OCc2cc(OC)c3ccccc3c2)[C@H]1c1ccc(OCCCOCc2ccccc2OC)cc1 [B, (R)-1-[(3S,4R,5R)-4-[4-[3-(2-methoxy-benzyloxy)-propoxy]-phenyl]-5-(4-methoxy-naphthalen-2-ylmethoxy)-piperidin-3-yloxy]-3-(2-methoxy-ethoxy)-propan-2-ol] gave an IC50 of 0.03 nM. Work on COc1cc(CO[C@H]2CNC[C@@H](OC[C@H](O)CO)[C@@H]2c2ccc(OCCCOc3ccccc3[N+](=O)[O-])cc2)cc2ccccc12 [C, (R)-3-[(3S,4R,5R)-5-(4-methoxy-naphthalen-2-ylmethoxy)-4-[4-[3-(2-nitro-phenoxy)-propoxy]-phenyl]-piperidin-3-yloxy]-propane-1,2-diol] yielded an IC50 of 0.08 nM. Work on COc1ccccc1COCCCOc1ccc([C@H]2[C@H](CO)CNC[C@@H]2OCc2cc(OC)c3ccccc3c2)cc1 [D, (3S,4R,5R)-[4-[4-[3-(2-methoxy-benzyloxy)-propoxy]-phenyl]-5-(4-methoxy-naphthalen-2-ylmethoxy)-piperidin-3-yl]-methanol] yielded an IC50 of 0.02 nM. COc1ccccc1COCCCOc1ccc([C@H]2[C@H](Cn3ccnc3)CNC[C@@H]2OCc2cc(OC)c3ccccc3c2)cc1 [E, (3S,4R,5R)-3-imidazol-1-ylmethyl-4-[4-[3-(2-methoxy-benzyloxy)-propoxy]-phenyl]-5-(4-methoxy-naphthalen-2-ylmethoxy)-piperidine dihydrochloride] gave an IC50 of 0.07 nM.
